For the first assay, the target named is ROCK2 (human) (UniProt O75116). The experiment in a line: Inhibition of ROCK2 Kinase Activity.
Chain of ROCK2 (human) (O75116 whole entry, looked up): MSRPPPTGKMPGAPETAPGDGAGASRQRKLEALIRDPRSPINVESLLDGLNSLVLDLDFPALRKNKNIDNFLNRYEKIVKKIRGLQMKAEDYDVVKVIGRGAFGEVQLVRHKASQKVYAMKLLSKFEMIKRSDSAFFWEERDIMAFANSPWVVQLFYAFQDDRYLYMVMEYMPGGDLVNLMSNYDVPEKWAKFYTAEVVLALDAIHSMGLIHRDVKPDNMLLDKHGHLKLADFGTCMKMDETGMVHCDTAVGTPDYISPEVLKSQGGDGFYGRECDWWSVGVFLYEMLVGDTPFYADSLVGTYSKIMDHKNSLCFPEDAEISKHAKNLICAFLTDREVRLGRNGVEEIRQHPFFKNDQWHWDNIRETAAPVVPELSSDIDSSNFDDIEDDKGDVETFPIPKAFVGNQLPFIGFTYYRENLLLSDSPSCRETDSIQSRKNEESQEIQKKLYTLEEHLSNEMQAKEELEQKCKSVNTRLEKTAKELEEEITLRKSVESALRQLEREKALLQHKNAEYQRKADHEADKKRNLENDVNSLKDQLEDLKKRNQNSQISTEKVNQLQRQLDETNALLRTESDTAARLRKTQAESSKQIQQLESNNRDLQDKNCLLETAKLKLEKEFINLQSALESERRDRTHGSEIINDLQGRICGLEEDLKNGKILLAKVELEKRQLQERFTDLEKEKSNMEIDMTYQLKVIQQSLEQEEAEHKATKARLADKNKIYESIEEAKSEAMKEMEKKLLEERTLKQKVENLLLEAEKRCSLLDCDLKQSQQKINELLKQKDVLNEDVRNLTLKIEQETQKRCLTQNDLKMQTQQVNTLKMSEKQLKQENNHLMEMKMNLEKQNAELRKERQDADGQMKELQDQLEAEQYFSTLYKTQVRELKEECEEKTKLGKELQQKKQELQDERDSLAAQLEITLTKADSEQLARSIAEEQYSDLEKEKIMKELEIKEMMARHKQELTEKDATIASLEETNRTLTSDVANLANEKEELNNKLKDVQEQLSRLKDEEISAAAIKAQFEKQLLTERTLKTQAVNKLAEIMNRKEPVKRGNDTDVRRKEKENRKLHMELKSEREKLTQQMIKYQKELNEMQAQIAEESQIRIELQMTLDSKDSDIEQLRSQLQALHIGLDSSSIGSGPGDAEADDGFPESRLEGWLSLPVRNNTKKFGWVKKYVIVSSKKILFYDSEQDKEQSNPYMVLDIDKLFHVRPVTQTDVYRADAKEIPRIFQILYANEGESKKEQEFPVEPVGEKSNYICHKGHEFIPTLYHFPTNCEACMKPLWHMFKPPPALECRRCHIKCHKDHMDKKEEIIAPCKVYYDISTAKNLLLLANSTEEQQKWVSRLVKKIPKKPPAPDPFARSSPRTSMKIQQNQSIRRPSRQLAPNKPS
Conditions: not given
In general, IC50 refers to the point on the concentration scale where inhibition reaches its midpoint. Lower therefore signals higher potency. For the compound `C=CC[C@@H](N)[C@H]1CC[C@H](C(=O)Nc2ccncc2)CC1`, the IC50 was found to be 1.9 µM.
Still for that read-out and setting: the same measure for `CCCCCCCCN(N)[C@H]1CC[C@H](C(=O)Nc2ccncc2)CC1`: 6.5 µM.

The same assay, now with this note: concentration not given here.
For orientation: inhibition means the share of the control response that was lost under treatment. Read a high inhibition as a strong effect. On to `CC(C)CCN(N)[C@H]1CC[C@H](C(=O)Nc2ccncc2)CC1`, for which the inhibition worked out at 43%.
Same read-out and setting: as for `C=CCC(NCc1ccccc1)[C@H]1CC[C@H](C(=O)Nc2ccncc2)CC1` (stereo partly drawn), the figure is 44%.
On the same count and under the same terms, the same measure for `CCCN(N)[C@H]1CC[C@@H](C(=O)Nc2ccncc2)CC1`: 19%.
The same measure, in the same setting: as for `NN(Cc1ccc(OCc2ccccc2)cc1)[C@H]1CC[C@H](C(=O)Nc2ccncc2)CC1`, the figure is 59%.
Regarding `NN(C/C=C/c1ccccc1)[C@H]1CC[C@H](C(=O)Nc2ccncc2)CC1`, the inhibition stood at 49%.
`C=CCC(N)[C@H]1CC[C@H](C(=O)Nc2ncnc3[nH]cnc23)CC1` (stereo partly drawn) yielded an inhibition of 0%.
Take `NN(Cc1ccccc1)[C@H]1CC[C@@H](C(=O)Nc2ccncc2)CC1`: the inhibition was 32%.
Same read-out and setting: as for `CC(C)N(N)[C@H]1CC[C@@H](C(=O)Nc2ccncc2)CC1`, the figure is 25%.
Still for that read-out and setting: as for `NN(CC(c1ccccc1)c1ccccc1)[C@H]1CC[C@H](C(=O)Nc2ccncc2)CC1`, the figure is 45%; as for `CC(C)CCN(N)[C@H]1CC[C@@H](C(=O)Nc2ccncc2)CC1`, 13%; as for `C=CC[C@H](N)[C@H]1CC[C@H](C(=O)Nc2ccncc2)CC1`, 63%.
The same measure, in the same setting: the same measure for `NN(Cc1ccccc1)[C@H]1CC[C@H](C(=O)Nc2ccncc2)CC1`: 61%.
As to `CCCN(N)[C@H]1CC[C@H](C(=O)Nc2ccncc2)CC1`, the inhibition amounted to 45%.
Same read-out and setting: as for `C=CC[C@@H](N)[C@H]1CC[C@H](C(=O)Nc2ccncc2)CC1`, the figure is 81%; as for `NN(CCc1ccccc1)[C@H]1CC[C@H](C(=O)Nc2ccncc2)CC1`, 46%.
Same read-out and setting: the same measure for `CN(N)[C@H]1CC[C@@H](C(=O)Nc2ccncc2)CC1`: 33%.
With `CCCCCCCCN(N)[C@H]1CC[C@H](C(=O)Nc2ccncc2)CC1`, the inhibition came out at 53%.
For `CC(C)N(N)[C@H]1CC[C@H](C(=O)Nc2ccncc2)CC1`, the inhibition was determined as 45%.
On the same count and under the same terms, the same measure for `C=CCC(NC)[C@H]1CC[C@H](C(=O)Nc2ccncc2)CC1` (stereo partly drawn): 45%.
Still for that read-out and setting: as for `NN(CC1CCCCC1)[C@H]1CC[C@H](C(=O)Nc2ccncc2)CC1`, the figure is 40%.
Consider `CN(N)[C@H]1CC[C@H](C(=O)Nc2ccncc2)CC1`, for which the inhibition was determined as 63%.

The values are drawn from the Kinase Knowledgebase extract (Sharma et al. 2016).
